Results as given in patent publication US20120232049A1, “PYRIDINE OR PYRIMIDINE DERIVATIVE HAVING EXCELLENT CELL GROWTH INHIBITION EFFECT AND EXCELLENT ANTI-TUMOR EFFECT ON CELL STRAIN HAVING AMPLIFICATION OF HGFR GENE” (Eisai R&D Management Co., Ltd., priority 2007, published 2012).

How the values were obtained:
[1] = test system: MKN-45 (human gastric cancer cells); assay: Proliferation inhibitory effect against human cancer cells, MKN-45; assay type: cell-based; conditions: MKN-45, 72 h, c-met amplified cell, 3 days, Cell Counting Kit-8
Description: (§1) Six kinds of human cancer cells are suspended in RPMI1640 medium (purchased from Sigma) containing 10% FBS, respectively. The cell suspensions (MKN-45: 1.5×10^4 cells/ml, SNU-5: 5×10^4 cells/ml, EBC-1: 3×10^4 cells/ml, MKN-74: 2.5×10^4 cells/ml, SNU-1: 2.5×10^4 cells/ml, A549: 1.5×10^4 cells/ml) were added to a cell culture 96-well plate (purchased from NUNC, product number: 167008) at 0.1 ml/well, and cultured overnight in a 5% CO2 incubator (37° C.). After the culture, 0.1 ml of a test substance diluted with RPMI1640 medium containing 10% FBS and the culture was continued for 3 days in a 5% CO2 incubator (37° C.). After the culture, 10 μl of Cell Counting Kit-8 (purchased from DOJINDO, product number: 343-07623) was added to each well and the incubation was performed for 0.5 to 3 hours in a 5% CO2 incubator (37° C.). After the incubation, absorbance of each well was measured by a plate reader MTP-500 (Corona Electric Co., Ltd.) with measurement wavelength 450 nm and reference wavelength 660 nm.

[2] = test system: SNU-5 (human gastric cancer cells); assay: Proliferation inhibitory effect against human cancer cells, SNU-5; assay type: cell-based; conditions: SNU-5, 72 h, c-met amplified cell, 3 days, Cell Counting Kit-8
Description: as §1

[3] = test system: EBC-1 (human lung cancer cells); assay: Proliferation inhibitory effect against human cancer cells, EBC-1; assay type: cell-based; conditions: EBC-1, 72 h, c-met amplified cell, 3 days, Cell Counting Kit-8
Description: as §1

[4] = test system: MKN-74 (human gastric cancer cells); assay: Proliferation inhibitory effect against human cancer cells, MKN-74; assay type: cell-based; conditions: MKN-74, 72 h, c-met non-amplified cell, 3 days, Cell Counting Kit-8
Description: as §1

[5] = test system: SNU-1 (human gastric cancer cells); assay: Proliferation inhibitory effect against human cancer cells, SNU-1; assay type: cell-based; conditions: SNU1, 72 h, c-met non-amplified cell, 3 days, Cell Counting Kit-8
Description: as §1

[6] = test system: A549 (human lung cancer cells); assay: Proliferation inhibitory effect against human cancer cells, A549; assay type: cell-based; conditions: A549, 72 h, c-met non-amplified cell, 3 days, Cell Counting Kit-8
Description: as §1

[7] = test system: Human gastric cancer cells (MKN-45); assay: Tumor proliferation inhibitory effect against human cancer cells (MKN-45), subcutaneous transplant; assay type: in vivo, BALB/c(nu/nu) mice; conditions: orally twice a day, fifth day
Description: Human gastric cancer cells (MKN-45) were suspended in HBSS (purchased from GIBCO BRL). The cell suspension (5×10^7 cells/ml; 0.1 ml) was transplanted to the subcutaneous parts of the right flank of 7-week female BALB/c(nu/nu) mice. When the tumor volume reached 100-200 mm^3, mice were grouped so that the average of the tumor volume was equable in each group, and 0.5% methylcellulose in hydrochloric acid-glucose solution (0.1N hydrochloric acid:5% glucose solution=1:9) or a test substance suspended in dimethylsulfoxide-Tween-glucose solution (dimethylsulfoxide:Tween:5% glucose solution (containing equimolar hydrochloric acid of the test substance)=7:13:80) was orally administered to mice daily twice a day. The tumor volume was measured on the fifth day from the administration of the test substance. The long and short diameters of the tumor were measured with a caliper and the tumor volume was calculated according to the equation: 1/2×long diameter×short diameter×short diameter. The experiment was conducted in a control group (vehicle administered group) of 10 animals as well as in the test substance administered group of 5 animals. Tumor proliferation rate (%) was defined as the ration of the tumor volume of the test substance administered group to the tumor volume of control group and shown in table 9

[8] = 100 mg/kg weight/administration
[9] = 12.5 mg/kg weight/administration

Structure (SMILES) | IC50 [1] [µM] | IC50 [2] [µM] | IC50 [3] [µM] | IC50 [4] [µM] | IC50 [5] [µM] | IC50 [6] [µM] | tumor proliferation rate(%) ([7]; 30 mg/kg weight/administration) | tumor proliferation rate(%) [7, 8] [%] | tumor proliferation rate(%) [7, 9] [%] | tumor proliferation rate(%) ([7]; 1 mg/kg weight/administration) | tumor proliferation rate(%) ([7]; 3 mg/kg weight/administration) | tumor proliferation rate(%) ([7]; 10 mg/kg weight/administration)
CN1CCN(C2CCN(C(=O)Nc3cc(Oc4ccc(NC(=O)C5(C(=O)Nc6ccc(F)cc6)CC5)c(F)c4)ccn3)CC2)CC1 [Example 15, N-(2-Fluoro-4-{[2-({[4-(4-methylpiperazin-1-yl)piperidin-1-yl]carbonyl}amino)pyridin-4-yl]oxy}phenyl)-N-(4-fluorophenyl)cyclopropane-1,1-dicarboxamide] | 0.015 | 0.0062 | 0.017 | 4.3 | 4.2 | 2.6 | 29.7 | 19.9 | – | – | – | –
O=C(Nc1cc(Oc2ccc(NC(=O)C3(C(=O)Nc4ccc(F)cc4)CC3)c(F)c2)ccn1)N1CCC1 [Example 61, N-[4-({2-[(Azetidin-1-ylcarbonyl)amino]pyridin-4-yl}oxy)-2-fluorophenyl]-N′-(4-fluorophenyl)cyclopropane-1,1-dicarboxamide] | 0.06 | 0.038 | 0.065 | 4.2 | > 10 | > 10 | – | – | 35.8 | – | – | –
O=C(Nc1cc(Oc2cc(F)c(NC(=O)C3(C(=O)Nc4ccc(F)cc4)CC3)cc2F)ccn1)N1CC(O)C1 [Example 91, N-{2,5-Difluoro-4-[(2-{([3-hydroxyazetidin-1-yl)carbonyl]amino}pyridin-4-yl)oxy]phenyl}-N′-(4-fluorophenyl)cyclopropane-1,1-dicarboxamide] | 0.006 | 0.006 | 0.0064 | 3 | 2 | 1.9 | 19.6 | 16.0 | 22.9 | 73.0 | 55.5 | 27.4
CN1CCN(C2CCN(C(=O)Nc3cc(Oc4cc(F)c(NC(=O)C5(C(=O)Nc6ccc(F)cc6)CC5)cc4F)ccn3)CC2)CC1 [Example 92, N-(2,5-Difluoro-4-{[2-({[4-(4-methylpiperazin-1-yl)piperidin-1-yl]carbonyl}amino)pyridin-4-yl]oxy}phenyl)-N′-(4-fluorophenyl)cyclopropane-1,1-dicarboxamide] | 0.0038 | 0.0017 | 0.0038 | 2 | 2.3 | 2.9 | – | – | 27.9 | – | – | –
CN1CCC(N(C)C(=O)Nc2cc(Oc3cc(F)c(NC(=O)C4(C(=O)Nc5ccc(F)cc5)CC4)cc3F)ccn2)CC1 [Example 94, N-(2,5-Difluoro-4-{[2-({[methyl(1-methylpiperidin-4-yl)amino]carbonyl}amino)pyridin-4-yl]oxy}phenyl)-N′-(4-fluorophenyl)cyclopropane-1,1-dicarboxamide] | 0.0023 | 0.0017 | 0.0024 | 1.9 | 1.6 | 1.8 | – | – | – | – | – | –
O=C(Nc1cc(Oc2cc(F)c(NC(=O)C3(C(=O)Nc4ccc(F)cc4)CC3)cc2F)ccn1)N1CC(CO)C1 [Example 96, N-(2,5-Difluoro-4-{[2-({[3-(hydroxymethyl)azetidin-1-yl]carbonyl}amino)pyridin-4-yl]oxy}phenyl)-N′-(4-fluorophenyl)cyclopropane-1,1-dicarboxamide] | 0.0047 | 0.0049 | 0.0045 | 3.3 | 3.6 | 2 | – | – | – | – | – | –
